Values of other authors as cited in US9857354B2, “Compositions and methods for prognosis and treatment of neoplasm” (NOVAZOI THERANOSTICS, INC., priority 2014, dated 2018).

Assays:
[1] = biological target: T1, KIFC1/microtubule (MT) binary complex (Homo sapiens, UniProt Q9BW19); details: ATP-competitive and MT-noncompetitive; read-out: Ki, inhibition of MT-stimulated KIFC1 enzymatic activity
T1 sequence (Q9BW19 1-673): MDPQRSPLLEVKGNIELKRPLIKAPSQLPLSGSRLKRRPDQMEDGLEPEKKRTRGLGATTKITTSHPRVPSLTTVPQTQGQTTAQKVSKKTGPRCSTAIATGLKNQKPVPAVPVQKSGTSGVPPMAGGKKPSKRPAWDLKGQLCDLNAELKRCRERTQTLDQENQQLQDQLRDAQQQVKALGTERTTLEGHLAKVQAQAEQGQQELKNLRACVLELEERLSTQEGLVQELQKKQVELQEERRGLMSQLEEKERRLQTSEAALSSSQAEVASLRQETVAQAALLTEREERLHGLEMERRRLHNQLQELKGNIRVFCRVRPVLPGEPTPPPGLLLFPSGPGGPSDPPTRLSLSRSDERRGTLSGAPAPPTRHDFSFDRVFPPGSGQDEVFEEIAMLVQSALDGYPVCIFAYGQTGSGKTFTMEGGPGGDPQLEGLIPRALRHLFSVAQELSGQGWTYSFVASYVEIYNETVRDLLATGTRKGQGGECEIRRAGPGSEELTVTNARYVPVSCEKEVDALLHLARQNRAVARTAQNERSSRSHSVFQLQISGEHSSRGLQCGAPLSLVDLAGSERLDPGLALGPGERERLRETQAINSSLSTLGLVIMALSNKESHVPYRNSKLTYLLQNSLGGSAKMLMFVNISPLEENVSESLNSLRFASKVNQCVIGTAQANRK

[2] = tested on: BT-549 breast cancer cells; details: BT-549 breast cancer cells with amplified centrosomes

Structure (SMILES): CCCc1cc(C(=O)N[C@H](Cc2ccc(-c3cccc(OC(F)(F)F)c3)nc2)C(=O)N[C@@H]2CCNC2)sc1C [AZ82]
- Ki [1]: 43 nM
- centrosome declustering [2]: causes centrosome declustering
